Here are results for two molecules from PMC6944649, “Population Pharmacokinetics, Efficacy Exposure-response Analysis, and Model-based Meta-analysis of Fenebrutinib in Subjects with Rheumatoid Arthritis” (Pharmaceutical Research, 2020).

Series [1] can be described thus: Population pharmacokinetic (popPK) analysis of fenebrutinib plasma concentrations (Phase 1 GA29347, GP29832 and Phase 2 GA29350). Format: in vivo, human. How it is done: Fenebrutinib plasma concentrations were determined by high performance liquid chromatography with tandem mass spectrometry (MS/MS) detection (Covance Laboratories Inc., USA). Calibration plots were linear throughout the range of 0.5 to 500 ng/mL (lower and upper limits of quantification, respectively) for fenebrutinib in human plasma. Relative standard deviation of precision was <7.8%, and the accuracy of the method was between 91.3% and 102.7%.
Fenebrutinib plasma concentrations from subjects providing all available PK data after tablet administration in the clinical studies were integrated into the popPK analysis. The model was characterized initially in healthy subjects ([22]) from the Phase 1 multiple ascending dose (MAD) (GA29347) and a Phase 1 relative bioavailability/food effect/drug-drug interaction (GP29832, ClinicalTrials.gov Identifier: NCT02699710) studies, and later updated to incorporate the Phase 2 data from the three fenebrutinib-treated arms in patients with RA.
The popPK model was developed by introducing features in the order of increasing complexity, beginning with very simple models (e.g. one-compartment with first-order elimination), and continuing until further improvement in model fit was not supported by the data.
Covariate analysis first investigated the effects of pre-defined demographic, laboratory, prognostic, and treatment covariates on all the model parameters by using univariate screening. If >10% of a covariate was missing, the covariate was not included in the popPK analysis. Otherwise, the value of missing covariate observations was imputed as the median of the remaining values from an appropriate sub-population. For example, the missing baseline body weight value was imputed as the gender-adjusted median body weight of the remaining subjects. For categorical covariates, the most frequently occurring value was imputed for subjects with missing values in each trial. Concomitant proton pump inhibitor (PPI) and food were categorized as time-varying covariates, whereas the other categorical covariates were considered as baseline (non-time-varying) covariates. Next, covariates selected from the univariate screening (p value <0.05) were included in the evaluation of a full model followed by backwards elimination (p value <0.01). Effects of continuous covariates were incorporated into the model using the power function and normalized using the median of the covariate. Effects of categorical covariates were parameterized as proportional effects in the model, in which the fractional change on a model parameter was estimated, and the typical category constituted the largest proportion in the analysis population.
The final model was determined on the basis of objective function value, physiological plausibility of model parameter estimates, numerical convergence success, parameter estimate precision (relative standard errors <50%), and visual predictive check (VPC) plots. Goodness-of-fit plots were produced to verify the general agreement of fitted values with observed data. Prediction-corrected visual predictive check (pcVPC) was performed by normalizing the observed and simulated dependent variable based on the typical population prediction for the median independent variable in the bin ([26]). The pcVPC was stratified to evaluate the covariate effects of interest, whenever applicable. […]
Model development was carried out using first order conditional estimation with interaction (FOCE-I) as implemented in NONMEM (version 7.3, ICON Development Solutions, Ellicott City, MD). Post-processing of NONMEM analysis results was carried out in R (version 3.2.2, R Development Core Team, 2008).

Series [2] can be described thus: Phase 1 relative bioavailability/food effect/drug-drug interaction study (GP29832), non-compartmental analysis. Format: in vivo, human. As to conditions: healthy volunteers.
Series [3] concerns patients with rheumatoid arthritis. Briefly: Model-based meta-analysis (MBMA) of ACR20, ACR50, ACR70. Format: in vivo, human. How it is done:
An efficacy and safety meta-analysis database was constructed in July 2017 using publicly available data of randomized trials in RA, based on the guidelines in the Cochrane Handbook for Systematic reviews. For this, a systematic review of publicly available data from the PubMed, Cochrane Library, and Embase databases was conducted using the search term “rheumatoid arthritis”. Furthermore, an existing database that contained data published in or before 2012 ([30]) was augmented using an additional, systematic, and quality-controlled procedure to search for relevant published studies, extract their data, and add to the existing database yielding pertinent data published through 2017.
The summary data of the database were explored systematically to determine the amount of data available for each treatment, efficacy and safety endpoint across trials, distribution of mean patient characteristics, and to graphically view the time course of longitudinal endpoints, placebo effect, active treatment effect from each of the comparator treatments, and the effects of patient and trial characteristics. Response rates of ACR20, ACR50, and ACR70 in terms of the proportion of patients achieving specified thresholds were the most prevalent efficacy endpoints in the database, and therefore, were chosen as the variables for model development using MBMA. Because of the relatively few adverse events observed in the fenebrutinib Phase 2 trial in RA ([24]), MBMA for safety events, such as serious infections, was not conducted.
The model simultaneously fit ACR20, ACR50, and ACR70 longitudinal data, and a non-linear mixed effects (NLME) estimation method was carried out using R. This hierarchical regression model used maximum likelihood estimation, and multiple levels of heterogeneity were described as mixed effect variability terms accommodating between-trial and within-trial variability. […]
The adequacy of model fits across trials was evaluated by visually inspecting time course plots of observed distributions vs. predicted values. […]

Series [4] shares this test system. Briefly: Exposure-response (E-R) analysis of longitudinal ACR20, ACR50, ACR70 in Phase 2 trial GA29350. It is filed as in vivo, human. From the text:
(§1) GA29350 (ANDES, ClinicalTrials.gov Identifier: NCT02833350) was a multicenter, Phase 2, randomized, double-blind, placebo-controlled, parallel-group, dose-ranging trial to evaluate the efficacy and safety of fenebrutinib in patients with moderate to severe active RA and an inadequate response to previous MTX therapy (cohort 1) or anti-TNF therapy (cohort 2) ([24],[25]).
(§2) In cohort 1, 480 patients were enrolled, and were randomly assigned to 1 of 5 parallel treatment arms (3 fenebrutinib arms, 1 placebo arm, and 1 adalimumab arm). In the fenebrutinib and placebo arms, subjects received 50 mg QD, 150 mg QD, or 200 mg BID fenebrutinib tablets or placebo tablets, together with subcutaneous (SC) placebo injections every other week for 12 weeks (n = 40 in the 50 mg arm, and n = 109 to 111 in each of the other 4 arms). In the active comparator arm, patients received adalimumab 40 mg SC every other week and placebo tablets for 12 weeks. In cohort 2 (n = 98 enrolled), patients received 200 mg fenebrutinib BID or placebo tablets for 12 weeks.
(§3) Treatment responses in RA clinical trials are commonly evaluated by the American College of Rheumatology improvement criteria for 20, 50, and 70% threshold values (ACR20, ACR50, and ACR70, respectively), which is a binary response variable, and by the Disease Activity Score with 28-joint counts (DAS28), which is a continuous variable ([27],[28]). Both types of endpoints can be measured repeatedly during the course of the treatment period. The proportion of patients achieving ACR50 responses and analysis of longitudinal DAS28 (CRP) (DAS based on 28 joints and C-reactive protein value) were evaluated as the primary, key secondary, and secondary endpoints in the Phase 2 trial, and therefore, were of primary interest among clinical efficacy endpoints modeled for fenebrutinib. The E-R analyses aimed to establish the relationship between patient-specific fenebrutinib exposure with clinical efficacy endpoints of interest. […]

On the set-up of series [5]: method as in PMID 29484638. As to conditions: Phase 1, cited from earlier work.
In series [6] the test system is patients with rheumatoid arthritis. Description: Exposure-response (E-R) analysis of longitudinal DAS28 (CRP) in Phase 2 trial GA29350. Format: in vivo, human.
Text: as §1, §2, §3

The test system of another series is BTK. Set-up: method as in PMID 29484638. As to conditions: healthy volunteers, Phase 1; cited from earlier work.

As for `C[C@H]1CN(C2COC2)CCN1c1ccc(Nc2cc(-c3ccnc(N4CCn5c(cc6c5CC(C)(C)C6)C4=O)c3CO)cn(C)c2=O)nc1` [fenebrutinib], the “apparent clearance (CL/F) decrease with concomitant administration of PPI” value in series [1] (concomitant PPI) is given as 33.7%. In addition, in series [1] (final popPK model estimate θ1, oral, typical RA patient), the “CL/F: Apparent systemic clearance” value was 19.5 L/h. Also, in series [1] (final popPK model estimate θ7, transit compartment absorption model), the “NTR: Number of transit compartments” value was 14.9. In addition, the “MTT: Mean transit time” value in series [1] (final popPK model estimate θ8) is given as 0.849 h. In series [1] (final popPK model estimate θ11, covariate effect), the “Food effect on MTT” value was 1.43. The “PPI effect on MTT” value in series [1] (final popPK model estimate θ12, concomitant proton pump inhibitor) was 0.835. Moreover, in series [1] (final popPK model estimate θ13), the “PPI and food effect on MTT” value is on record as 2.26. The “PPI effect on F1” value in series [1] (final popPK model estimate θ14, F1 relative extent of absorption) is recorded as 0.657. Also, the “PPI and food effect on F1” value in series [1] (final popPK model estimate θ15) is given as 0.693. Further, the “Food effect on NTR” value in series [1] (final popPK model estimate θ16) is given as 0.864. In addition, the “Tablet effect on NTR” value in series [1] (final popPK model estimate θ17, formulation effect) is 0.049. Besides, the Vd/F in series [1] (human, plasma, oral, final popPK model estimate θ2, read-out: V1/F: Apparent central volume of distribution) is 381 L. Moreover, the “ω^2CL/F” value in series [1] (inter-individual variability ω1.1) stood at 0.0732. In addition, the “ω^2V1/F” value in series [1] (inter-individual variability ω2.2) came to 0.100. Also, the “ω^2MTT” value in series [1] (inter-individual variability ω8.8) worked out at 0.0861. Also, the “ω^2F1” value in series [1] (inter-individual variability ω9.9) was determined as 0.131. Moreover, the “ω^2IOV on F1” value in series [1] (inter-occasion variability ω10.1) worked out at 0.299. Also, the “higher apparent clearance in healthy subjects than patients with RA” value in series [1] (two Phase 1 studies vs Phase 2 trial) is 52%. Besides, in series [2], the “PPI effect on Cmax” value is given as “PPI decreases the Cmax”; the “food effect on concentration-time profile and Tmax” value was “food blunts the concentration-time profile and delays the Tmax”. Further, the “efficacy in terms of ACR20, ACR50, and ACR70 compared to the registrational doses of adalimumab and tofacitinib” value in series [3] (MBMA simulation, 200 mg BID, TNF-IR patients, 12 weeks after initiation of treatment) is given as “comparable efficacy”. In addition, in series [3] (calculated from E-R EC50 and fixed in MBMA model), the “ED50, dose at which 50% of efficacy” value is given as 525 mg/week. In series [4] (ACR20/50/70 E-R model θ9, logit scale), the “Max drug effect over time - Eastern Europe” value is on record as 1.39. Moreover, the “Max drug effect over time - Latin America” value in series [4] (ACR20/50/70 E-R model θ14) is 2.06. In series [4] (graphical exploration and model-based simulation, cohort 1 MTX-IR patients, exposure range of Phase 2 study), the “efficacy versus exposure (ACR responses and DAS28 (CRP))” value is “plateau of efficacy was achieved”. Besides, the accumulation entry in series [5] (following twice daily dosing) is reported as “modest accumulation”. Further, in series [5] (healthy subjects), the “increase of plasma exposures with dose” value is “approximately dose-proportionally”, the steady-state half-life is 4.2 to 9.9 h and the “time of peak plasma concentrations after oral administration” value was 1 to 3 h. In addition, in series [6] (DAS28 (CRP) E-R model θ4), the “Time of 50% drug effect” value amounted to 47 days. For the same molecule, in series [6] (DAS28 (CRP) E-R model θ6), the “Maximum drug effect over time (DAS28)” value is listed as -0.964. The ω2Max drug effect in series [6] (DAS28 (CRP) E-R model ω2.2, inter-individual variability) turned out to be 0.283. Moreover, the “inhibition of BTK” value in the series on BTK is “dose- and concentration-dependent inhibition”.

Regarding adalimumab [reference compound], the “ACR20, ACR50, and ACR70 response rates in arm of the fenebrutinib Phase 2 trial versus historical data” value in series [3] (adalimumab 40 mg SC every other week arm, MBMA) was “consistent with historical data”.
